{"source": "patent US5635391A", "about": "“Isolated DNA encoding a nitrilase polypeptide, hosts containing, and expression thereof optionally assisted by a E. coli GroE chaperone polypeptide” (priority 1992, dated 1997)", "key": {"purified nitrilase": {"target": "T1, purified nitrilase (Comamonas testosteroni, UniProt Q59329)", "T1 construct": "about 280 kDa oligomer of about 38 kDa subunits", "T1 sequence (Q59329 entry or part of it)": "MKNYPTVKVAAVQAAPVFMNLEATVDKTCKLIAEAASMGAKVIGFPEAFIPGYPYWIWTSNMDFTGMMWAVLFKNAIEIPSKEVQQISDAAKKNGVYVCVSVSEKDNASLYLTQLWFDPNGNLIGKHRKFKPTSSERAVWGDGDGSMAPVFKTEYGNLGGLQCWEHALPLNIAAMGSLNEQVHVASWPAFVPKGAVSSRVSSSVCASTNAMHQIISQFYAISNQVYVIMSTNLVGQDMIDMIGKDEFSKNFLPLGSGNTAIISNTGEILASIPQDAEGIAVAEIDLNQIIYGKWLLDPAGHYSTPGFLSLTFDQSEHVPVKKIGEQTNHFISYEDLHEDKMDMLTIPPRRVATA", "test": "Relative activity of the purified nitrilase on various nitriles", "assay_type": "biochemical, Comamonas testosteroni sp.", "settings": "acetate buffer 10 mM, pH 4; substrate 10 mM; 25° C.", "procedure": "The activities of the purified nitrilase were measured on adiponitrile, 5-cyanovaleramide, 5-cyanovaleric acid, benzonitrile, propionitrile and acrylonitrile.\nCOMMON CONDITIONS: acetate buffer=10 mM, pH 4; substrate=10 mM; volume=3 ml; T=25° C.; reaction time=1 or 3 h; proteins: from 5 to 30 μg/ml."}, "E. coli TG1": {"system": "E. coli TG1", "test": "Nitrilase activity of control strain E. coli TG1", "assay_type": "cell-based", "settings": "no IPTG, whole cells, DW 15.5 g/l, 1 ml, substrate 50 mM, 25° C.", "procedure": "(§1) The activities of these strains, induced or non-induced, are measured on adiponitrile and 5-cyanovalerate at different pH values and are compared with the negative control strains: E. coli TG1, E. coli TG1 (pXL2035) and Pseudomonas putida G2081.\n(§2) The cultures are carried out under the conditions described in Table 4. During the exponential growth phase, one of the two cultures of the recombinant strain is induced with 1 mM IPTG; after 2 h at 37° C., this culture is treated.\n(§3) The conditions of the specific activity measurements and the results are collated in Table 5.\n(§4) COMMON CONDITIONS: [substrate]=50 mM; T=25° C.; buffer 50 mM; kinetics over 90 min for 1 to 3 and over 120 min for 4 to 8.\n(§5) ABBREVIATIONS: W=whole cells; S=sonicated cells; Ua=μmols of cyanovalerate produced/h; Ub=μmols of adipate produced/h; AdN=adiponitrile; CVA=5-cyanovalerate. DW=dry weight."}, "E. coli TG1 pXL2087": {"system": "E. coli TG1 pXL2087", "test": "Nitrilase activity of recombinant strain E. coli TG1 pXL2087", "assay_type": "cell-based", "settings": "substrate 50 mM", "procedure": "as §1, §2, §3, §4, §5"}, "E. coli TG1 pXL2158": {"system": "E. coli TG1 pXL2158", "test": "Nitrilase activity of recombinant strain E. coli TG1 pXL2158", "assay_type": "cell-based", "settings": "DW 1.25 g/l; 1 ml; pH 7.0; substrate 50 mM", "procedure": "as §1, §2, §3, §4, §5"}, "E. coli TG1 pXL2035,2158": {"system": "E. coli TG1 pXL2035,2158", "test": "Nitrilase activity of recombinant strain E. coli TG1 pXL2035,2158", "assay_type": "cell-based", "settings": "DW 0.2 g/l; 1 ml; pH 7.0; substrate 50 mM", "procedure": "as §1, §2, §3, §4, §5"}, "P. putida G2081 pXL2169": {"system": "P. putida G2081 pXL2169", "test": "Nitrilase activity of recombinant strain P. putida G2081 pXL2169", "assay_type": "cell-based, Pseudomonas putida", "settings": "no IPTG; whole cells; DW 0.25 g/l; 1 ml; pH 7.0; substrate 50 mM", "procedure": "as §1, §2, §3, §4, §5"}, "E. coli PXL2158": {"system": "E. coli PXL2158", "test": "Hydrolysis of methiononitrile with E. coli PXL2158 in suspension", "assay_type": "cell-based", "settings": "test 9; whole cells; MetCN 100 mM; DW 17.2 g/l; pH 7; 28° C.", "procedure": "(§6) The recombinant strains used in this example are those from E. coli TG1, integrating the plasmids PXL2158 and PXL2035 described above and containing the nitrilase gene of Comamonas testosteroni.\n(§7) Tests 9 to 13 show the nitrilase activity at 28° C., of these recombinant strains with respect to the methiononitrile, according to various operating conditions. The strain culture is performed as explained in example 6.1.The following Table 7 summarizes the conditions and the results of tests 9 to 13."}, "E. coli PXL2158 + 2035 [1]": {"system": "E. coli PXL2158 + 2035", "test": "Hydrolysis of methiononitrile with E. coli PXL2158 + 2035 in suspension", "assay_type": "cell-based", "settings": "for Initial specific activity: whole cells, DW 1.4 g/l, pH 7, 28° C.", "procedure": "as §6, §7"}, "E. coli PXL2158 + 2035 [2]": {"system": "E. coli PXL2158 + 2035", "test": "Hydrolysis of methiononitrile with free and resin-fixed cells of E. coli PXL2158 + 2035", "assay_type": "cell-based", "settings": "test 15; free cells; dry cells 1.3 g/l; MetCN 50 mM; pH7; 28° C.", "procedure": "The E. coli PXL 2158+2035 free cells are fixed on resin according to the technique described in U.S. Pat. No. 4,732,851, so as to form a biocatalyst.\nCONDITIONS: volume=5 ml; potassium phosphate buffer=100 mM pH7, [MetCN]=50 mM; T 28° C.; kinetics over 3 h; DB=dry biocatalyst; DC=dry cells.\nTwo methiononitrile batches were tested: purified methiononitrile in the form of a sulfate and free methiononitrile.\nCONDITIONS: volume=5 ml; potassium phosphate buffer=100 mM pH7; T 28° C.; kinetics over 3 h; *=percent with respect to the formed acid; DB=dry biocatalyst; DC=dry cells."}}, "data": [{"smiles": "N#CCCCCC(N)=O", "note": "[5-Cyanovaleramide, 5-cyanovaleramide]", "values": [{"measurement": "RELATIVE ACTIVITY", "setting": "purified nitrilase", "result": 28, "unit": "%"}]}, {"smiles": "N#CCCCCC(=O)O", "note": "[5-Cyanovalerate, 5-cyanovalerate]", "values": [{"measurement": "Activity Ub", "setting": "E. coli TG1; pH 5.2", "result": "0 μmols of adipate produced/h"}, {"measurement": "Activity Ub", "setting": "E. coli TG1; pH 7.0", "result": "0 μmols of adipate produced/h"}, {"measurement": "Activity Ub", "setting": "E. coli TG1 pXL2087; +IPTG, sonicated cells, DW 1.4 g/l, 1 ml, pH 5.2", "result": "25 μmols of adipate produced/h"}, {"measurement": "Activity Ub", "setting": "E. coli TG1 pXL2087; +IPTG, sonicated cells, DW 1.4 g/l, 2 ml, pH 7.0", "result": "8 μmols of adipate produced/h"}, {"measurement": "Activity Ub", "setting": "E. coli TG1 pXL2087; +IPTG, whole cells, DW 1.4 g/l, 1 ml, pH 4.0", "result": "28 μmols of adipate produced/h"}, {"measurement": "Activity Ub", "setting": "E. coli TG1 pXL2087; +IPTG, whole cells, DW 1.4 g/l, 1 ml, pH 5.2", "result": "27 μmols of adipate produced/h"}, {"measurement": "Activity Ub", "setting": "E. coli TG1 pXL2087; +IPTG, whole cells, DW 1.4 g/l, 2 ml, pH 7.0", "result": "8 μmols of adipate produced/h"}, {"measurement": "Activity Ub", "setting": "E. coli TG1 pXL2087; no IPTG, sonicated cells, DW 1.0 g/l, 1 ml, pH 5.2", "result": "13 μmols of adipate produced/h"}, {"measurement": "Activity Ub", "setting": "E. coli TG1 pXL2087; no IPTG, sonicated cells, DW 1.0 g/l, 1 ml, pH 7.0", "result": "3.2 μmols of adipate produced/h"}, {"measurement": "Activity Ub", "setting": "E. coli TG1 pXL2087; no IPTG, whole cells, DW 1.2 g/l, 2 ml, pH 4.0", "result": "10 μmols of adipate produced/h"}, {"measurement": "Activity Ub", "setting": "E. coli TG1 pXL2087; no IPTG, whole cells, DW 1.2 g/l, 2 ml, pH 5.2", "result": "14 μmols of adipate produced/h"}, {"measurement": "Activity Ub", "setting": "E. coli TG1 pXL2087; no IPTG, whole cells, DW 1.2 g/l, 2 ml, pH 7.0", "result": "3.4 μmols of adipate produced/h"}, {"measurement": "Activity Ub", "setting": "E. coli TG1 pXL2158", "result": "8.3 μmols of adipate produced/h"}, {"measurement": "Activity Ub", "setting": "E. coli TG1 pXL2035,2158", "result": "70 μmols of adipate produced/h"}, {"measurement": "Activity Ua", "setting": "P. putida G2081 pXL2169", "result": "130 μmols of cyanovalerate produce"}]}, {"smiles": "C=CC#N", "note": "[Acrylonitrile, acrylonitrile]", "values": [{"measurement": "RELATIVE ACTIVITY", "setting": "purified nitrilase", "result": 23, "unit": "%"}]}, {"smiles": "N#Cc1ccccc1", "note": "[Benzonitrile, benzonitrile]", "values": [{"measurement": "RELATIVE ACTIVITY", "setting": "purified nitrilase", "result": 4, "unit": "%"}]}, {"smiles": "CSCCC(N)C#N", "note": "(stereo not drawn) [MetCN, methiononitrile]", "values": [{"measurement": "Initial specific activity", "setting": "E. coli PXL2158", "result": "8 μmol/h x mg of DW"}, {"measurement": "nitrilase activity", "setting": "E. coli PXL2158 + 2035 [1]; comment on Table 7", "result": "about 80 μmol of MEtCN/hxmg of DW"}, {"measurement": "Initial specific activity", "setting": "E. coli PXL2158 + 2035 [1]; test 10, MetCN 50 mM", "result": "77 μmol/h x mg of DW"}, {"measurement": "Initial specific activity", "setting": "E. coli PXL2158 + 2035 [1]; test 11, MetCN 50 mM", "result": "62 μmol/h x mg of DW"}, {"measurement": "Initial specific activity", "setting": "E. coli PXL2158 + 2035 [1]; test 12, MetCN 100 mM", "result": "73 μmol/h x mg of DW"}, {"measurement": "Initial specific activity", "setting": "E. coli PXL2158 + 2035 [1]; test 13, MetCN 200 mM", "result": "61 μmol/h x mg of DW"}, {"measurement": "activity relative to E. coli PXL2158 alone", "setting": "E. coli PXL2158 + 2035 [1]; tests 9 and 10", "result": "~10", "unit": "times"}, {"measurement": "Specific Initial Activity", "setting": "E. coli PXL2158 + 2035 [2]", "result": 63, "unit": "μmol/hx mg DC"}]}, {"smiles": "CCC#N", "note": "[Propionitrile, propionitrile]", "values": [{"measurement": "RELATIVE ACTIVITY", "setting": "purified nitrilase", "result": 6, "unit": "%"}]}]}
